Assay [1] has as its system endothelial cells having invaded Matrigel plugs. The assay is described as follows: In vivo s.c. Matrigel plug assay. Also noted: species or system C57B1/6N female mice. The following applies: daily i.p. administration of 10 μg/mice or higher doses, day 1 to day 7. As to the method: FIG. 5: bpV(phen) inhibits angiogenesis in vivo in the s.c. Matrigel assay. Graph showing the results of an experiment expressed as the number of cells that migrated in three microscopic fields for each s.c. Matrigel plug. Fields were equidistant from the edge of the plug. […] (2) Four mice that received daily administration of 10 μg bpV(phen) during the 7 days post-implantation. (3) Four mice that received daily administration of 50 μg bpV(phen) during the 7 days post-implantation. (4) Four mice that received daily administration of 100 μg bpv(phen) during the 7 days post-implantation. (5) Four mice that received daily administration of PBS during the 7 days post-implantation.
This assay was performed as previously described (107). Briefly, Matrigel (liquid at 4° C.) was mixed with 200 ng/ml ECGS and injected s.c. into four C57B1/6N female mice (1 ml/mice). After injection, the Matrigel polymerized to form a plug. After 7 days, the animals were sacrified, and the Matrigel plugs were removed and fixed in 10% neutral-buffered formalin solution (Sigma Chemical Co.) and embedded in paraffin. Histological sections were stained with Masson's trichrome and angiogenesis was scored by counting the number of cells that migrated in three microscopic fields for each s.c. Matrigel plug.
Experiments were performed to determine whether bpV(phen) inhibits vessel formation in vivo. […]

For a further assay, the system named is ETs (ET-1, ET-2, ET-3). Description: Plasma endothelin levels after insulin (RIA). The assay is classed as in vivo. The following applies: rats, bpV(phen) 0.5 mg/100 g b.w. i.p. 16 hours before insulin. As for the experimental part: The data presented in Table III show the effect of bpV(phen) on the plasmatic levels of ETs. […] Two minutes following insulin administration (1.5 μg/100 g b.w, or vehicle), the plasma levels of ETs were determined. Insulin administration induced a strong increase of seric ET concentration (54). […] In addition, bpV(phen) decreased the insulin-stimulated levels of plasmatic ETs below control levels. […] ETs (ET-1, ET-2, ET-3) were measured by RIA (Amersham kit RPA 555) after lyophilization and extraction on C2 columns (500 mg). Results are mean ±SEM, p<0.0209, control (n=4) vs Insulin, pV (n=3).

Assay [2] relates to air pouch exudates (leukocyte recruitment, pro-inflammatory mediators). The assay is described as follows: Murine air pouch model, L. major intra-pouch injection. In kind it is in vivo, BALB/c mice. As for the experimental part: FIG. 6: Neutrophils, eosinophils and MØ recruited in air pouch exudates of bpV(phen)-treated BALB/c mice in response to L. major promastigotes intra-pouch injection. Air pouch exudates were collected from animals injected with endotoxin-free PBS, LPS (20 μg/ml), L. major and bpV(phen) (500 nM i.p., 2 hour)+L. major, 6 hr post-inoculation. Each time point represents the mean±SD (n=4 mice) of 2 experiments similarly performed.
FIG. 7: In vivo Leishmania-induced pro-inflammatory mediator generations in pV-treated mice. (A) Nitrate level determination in air pouch exudates collected 6 hr post-inoculation of endotoxin-free PBS, L. major and bpV(phen) followed by L. major has been performed. Values are the mean±SEM of 2 experiments performed independently. (B) Evaluation of pro-inflammatory cytokines (IL-6 and IL-1β) and chemokines (MCP-1 and MIP-2) secreted in air pouch exudates collected as described above were measured by ELISA as described in more detail below. Values are the mean±SEM of 2 experiments performed independently. […] IL-6, IL-1β, MCP-1 and MIP-2 secretion were respectively 12.8-, 2-, 8- and 6.8-time more secreted in L. major -injected bpV(phen)-treated animals compared to L. major alone. PBS control was equal to background.
With the use of a murine air pouch model, we investigated early inflammatory events that occur following L. major skin injection in bpV(phen)-treated animals (FIG. 6).
In parallel to this experiment, in vivo generation of Leishmania-induced NO and pro-inflammatory mediators in bpV(phen)-treated mice were measured in air pouch exudates (FIG. 7).

In assay [3] the test system is ZR-75-1 human breast cancer. The assay is described as follows: ZR-75-1 human breast cancer xenograft. The following applies: 2.5 mg/Kg daily i.p., 42 days; E1 replacement. The assay is classed as in vivo, Female homozygous HSD nu/nu athymic mice. As to the method:
A) ZR-75-1 human breast cancer: ZR-75-1 human breast cancer cells obtained from the American Tissue Culture Collection (Rockville, Md.) were cultured in phenol red-free RPMI 1640. […] Female homozygous HSD nu/nu athymic mice (50 days old) were obtained from Harlan Sprague Dawley Inc. (Indianapolis, Ind.). Five mice were housed per vinyl cage, which was equipped with air filter lids and kept in laminar air flow hoods under pathogen-limiting conditions. The photoperiod was composed of a period of 14 h of light and a period of 10 h of darkness. Cages, bedding, and food (Agway Pro-Lab R-M-H diet #4018) were autoclaved prior to use. […] Bilateral ovariectomy (OVX) was performed on all animals one week prior to cell inoculation, under 2.5% isoflurane anesthesia mixed with oxygen. Simultaneously, an oestrogen (E2) implant was inserted subcutaneously to stimulate […] tumor growth and appearance. E2 implants were prepared in 1-cm long silastic tubing (inside diameter, 0.062 inch; outside diameter, 0.095 inch) containing 0.5 cm of estradiol/cholesterol diluted at a ratio of 1:10 (w:w). […] Statistical significance of treatment effect was assessed by repeated measures ANOVA after applying a power transformation to equalize residual variances and linearize the tumor growth curves.
Background: In xenograft studies the graft and the host belong to different species.

Setting [4] is: L. major-injected bpV(phen)-treated animals, 6 hr, ELISA.
Setting [5] is: bpV(phen)-treated + L. major, 6 hr.

In the case of `O.O.O.OO.OO.[K+].[OH-].[V].c1cnc2c(c1)ccc1cccnc12` [bpV(phen), potassium bisperoxo(1,10-phenanthroline)oxovanadate], the “number of endothelial cells having invaded Matrigel plugs” value in assay [1] is listed as “decreased by half”. Also, the “insulin-induced increase of seric ET concentration” value in the assay with ETs (ET-1, ET-2, ET-3) is “completely abolished”. Moreover, the Plasma endothelins in the assay on ETs (ET-1, ET-2, ET-3) (two minutes after insulin 1.5 μg/100 g b.w., mean ±SEM, n=3) amounted to 77.68 ± 3.08 pg/mL. Moreover, in assay [2] (6 hr post-inoculation), the “NO generation (nitrate level) in air pouch exudates in response to L. major infection” value is “enhanced generation”. Moreover, in assay [2] (setting [4]), the “IL-1β secretion in air pouch exudates, compared to L. major alone” value came out at 2 time; the “IL-6 secretion in air pouch exudates, compared to L. major alone” value was 12.8 time; the “MCP-1 secretion in air pouch exudates, compared to L. major alone” value is reported as 8 time; the “MIP-2 secretion in air pouch exudates, compared to L. major alone” value is 6.8 time. Also, the “recruitment of cells in air pouch exudates” value in assay [2] (bpV(phen) 500 nM i.p., 2 hour + L. major 10^7 parasites/ml, 6 hours post-injection, vs L. major alone) is reported as “five times greater”. Besides, in assay [2] (setting [5]), the “recruited leukocytes that were eosinophils” value was 18%, the “recruited leukocytes that were macrophages” value stood at 12% and the “recruited leukocytes that were neutrophils” value was around 70%. The tumor size entry in assay [3] is listed as “do not resulted in increase of tumor size”.

The values are drawn from patent US20030055106A1, “Therapeutic uses of peroxometallic compounds” (priority 1999, published 2003).
